We go through 50 molecules from the SangsterLogP compilation.

By logP is commonly meant the decadic logarithm of the partition coefficient of the neutral form, usually between octanol and water. High values mean higher lipophilicity, low ones lower lipophilicity. `O=C1c2ccccc2C(=O)c2c(NCCO)ccc(NCCO)c21` gave a logP of 1.17.
The result for `CN(C)c1ccc(/N=N/c2ccc([N+](=O)[O-])cc2)cc1` reads 3.79; that for `CNc1ccc(O)c2c1C(=O)c1c(O)ccc(NC)c1C2=O`, 1.61.
The result for `O=[N+]([O-])c1ccc(/N=N/c2ccc(N(CCO)CCO)cc2Cl)cc1` reads 2.93.
The value for `Nc1ccc(Nc2ccc([N+](=O)[O-])cc2[N+](=O)[O-])cc1` was 3.32.
Turning to `OCCN(CCO)c1ccc(/N=N/c2ccccc2)cc1`, the logP turned out to be 2.31.
The value for `Nc1ccc(/N=N/c2ccc([N+](=O)[O-])cc2)cc1` was 2.37; that for `O=C1c2ccc(O)c(O)c2C(=O)c2c(O)ccc(O)c21` was 2.01; that for `O=C1c2ccccc2C(=O)c2c(O)c(O)cc(O)c21` was 1.84.
The result for `Cc1cc(N(CCO)CCO)ccc1/N=N/c1ccc([N+](=O)[O-])cc1` reads 2.7; that for `Cc1cc(N(CCO)CCO)ccc1/N=N/c1ccc([N+](=O)[O-])cc1[N+](=O)[O-]`, 2.44; that for `Cc1cc(N(CCO)CCO)ccc1/N=N/c1c(Cl)cc([N+](=O)[O-])cc1[N+](=O)[O-]`, 3.15.
The result for `Cc1ccc2c(c1N)C(=O)c1ccccc1C2=O` reads 2.8; that for `Cc1cc(N(CCO)CCC#N)ccc1/N=N/c1ccc([N+](=O)[O-])cc1`, 2.97.
`Nc1ccc(N=Nc2ccccc2)cc1` yielded a logP of 2.62.
The result for `CN(CCO)c1ccc(/N=N/c2c(Cl)cc([N+](=O)[O-])cc2Cl)cc1` reads 4.34; that for `CCN(CCO)c1ccc(/N=N/c2ccc([N+](=O)[O-])cc2)cc1`, 3.37.
The value for `CCN(CC)c1ccc(/N=N/c2ccc([N+](=O)[O-])cc2)cc1` was 4.69; that for `O=[N+]([O-])c1ccc(/N=N/c2ccccc2)cc1` was 3.59.
The value for `Nc1ccc(O)c2c1C(=O)c1ccccc1C2=O` was 1.8; that for `O=C1c2ccccc2C(=O)C1c1nc2ccccc2cc1O` was 2.49.
`O=[N+]([O-])c1ccc(/N=N/c2ccc(Nc3ccccc3)cc2)cc1` displayed a logP of 5.07.
On to `O=c1[nH]c2ccccc2c(O)c1/N=N/c1ccccc1`, for which the logP worked out at 4.2.
The value for `Cc1cc(N(CCO)CCO)ccc1/N=N/c1c(Cl)cc([N+](=O)[O-])cc1Cl` was 4.12; that for `O=[N+]([O-])c1ccc(Nc2ccccc2)c([N+](=O)[O-])c1` was 4.55.
The result for `CCN(CCO)c1ccc(/N=N/c2ccc([N+](=O)[O-])cc2[N+](=O)[O-])cc1` reads 3.11; that for `COc1cc(N)c2c(c1N)C(=O)c1ccccc1C2=O`, 1.29; that for `Cc1cc(Cl)cc2c1C(=O)/C(=C1\Sc3cc(Cl)cc(C)c3C1=O)S2`, 6.02.
The value for `O=C1C(c2[nH]c3ccccc3c2O)=Nc2ccccc21` was 2.63; that for `Nc1c(Oc2ccccc2)cc(O)c2c1C(=O)c1ccccc1C2=O` was 4.68; that for `O=[N+]([O-])c1ccc(Nc2ccc(O)cc2)c([N+](=O)[O-])c1` was 3.88.
Turning to `O=C1C(c2[nH]c3c(Br)cc(Br)cc3c2O)=Nc2c(Br)cc(Br)cc21`, the logP was 6.66.
Molecule `CCOc1cc(/N=N/c2c(Br)cc([N+](=O)[O-])cc2[N+](=O)[O-])c(NC(C)=O)cc1N(CCOC(C)=O)CCOC(C)=O` had a logP of 3.56.
In the case of `Cc1cc(N(CCO)CCO)ccc1/N=N/c1ccc([N+](=O)[O-])cc1Cl`, the logP worked out at 3.41.
Turning to `Oc1ccc(/N=N/c2ccccc2)cc1`, the logP is 3.18.
The value for `CNc1cccc2c1C(=O)c1ccccc1C2=O` was 2.87; that for `O=C1c2ccccc2C(=O)c2c(NCCO)cccc21` was 2.11.
`Cc1cc(N(CCO)CCO)ccc1/N=N/c1ccccc1` displayed a logP of 2.7.
For `COc1cc([N+](=O)[O-])ccc1/N=N/c1ccc(N(CCO)CCO)cc1`, the logP was found to be 2.27.
The value for `CNc1ccc(NCCO)c2c1C(=O)c1ccccc1C2=O` was 1.94; that for `O=C1c2ccccc2C(=O)c2c(O)ccc(O)c21` was 2.34; that for `c1ccc2oc(-c3ccc(-c4nc5ccccc5o4)s3)nc2c1` was 5.97.
Molecule `O=[N+]([O-])c1ccc(/N=N/c2ccc(N(CCO)CCO)cc2)c([N+](=O)[O-])c1` came in with a logP of 1.79.
With `O=[N+]([O-])c1ccc(/N=N/c2ccc(N(CCO)CCO)cc2)cc1`, the logP is 2.05.
The molecule `O=C1c2ccccc2C(=O)c2c1ccc(O)c2O` had a logP of 2.34.
The result for `CNc1ccc(NC)c2c1C(=O)c1ccccc1C2=O` reads 2.7.
Molecule `CCN(CCO)c1ccc(/N=N/c2ccc([N+](=O)[O-])cc2Cl)cc1` displayed a logP of 4.08.
The value for `CC(=O)Nc1ccc(/N=N/c2cc(C)ccc2O)cc1` was 2.85.
As to `Clc1ccc(/N=N/c2ccccc2)cc1`, the logP was 4.56.
The result for `CN(C)c1ccc(/N=N/c2ccccc2)cc1` reads 4.05.
